Counter-ions that a name gives are not always drawn. The source made the active and inactive calls.
Key:
[1] = biological target: T1, Caspase-3 (Homo sapiens, UniProt P42574); assay type: functional;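 further: Dose-response selectivity test against caspase-3 for candidate inhibitors of sentrin-specific proteases (SENPs)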
T1 sequence (P42574 whole entry): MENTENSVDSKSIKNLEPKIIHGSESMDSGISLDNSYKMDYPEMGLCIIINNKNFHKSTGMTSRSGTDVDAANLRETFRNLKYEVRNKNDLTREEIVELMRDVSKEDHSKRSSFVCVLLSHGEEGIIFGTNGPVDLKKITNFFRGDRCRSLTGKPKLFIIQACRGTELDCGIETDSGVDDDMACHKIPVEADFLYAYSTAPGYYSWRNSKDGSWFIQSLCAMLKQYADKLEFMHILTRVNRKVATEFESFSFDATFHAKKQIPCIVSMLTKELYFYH

[2] = biological target: T2, Sentrin-specific protease 7 (Homo sapiens, UniProt Q9BQF6); assay type: functional;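 further: Luminescence-based dose-response confirmation of ultra-high-throughput screening hits, measuring inhibition of SENP7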
T2 sequence (Q9BQF6 whole entry): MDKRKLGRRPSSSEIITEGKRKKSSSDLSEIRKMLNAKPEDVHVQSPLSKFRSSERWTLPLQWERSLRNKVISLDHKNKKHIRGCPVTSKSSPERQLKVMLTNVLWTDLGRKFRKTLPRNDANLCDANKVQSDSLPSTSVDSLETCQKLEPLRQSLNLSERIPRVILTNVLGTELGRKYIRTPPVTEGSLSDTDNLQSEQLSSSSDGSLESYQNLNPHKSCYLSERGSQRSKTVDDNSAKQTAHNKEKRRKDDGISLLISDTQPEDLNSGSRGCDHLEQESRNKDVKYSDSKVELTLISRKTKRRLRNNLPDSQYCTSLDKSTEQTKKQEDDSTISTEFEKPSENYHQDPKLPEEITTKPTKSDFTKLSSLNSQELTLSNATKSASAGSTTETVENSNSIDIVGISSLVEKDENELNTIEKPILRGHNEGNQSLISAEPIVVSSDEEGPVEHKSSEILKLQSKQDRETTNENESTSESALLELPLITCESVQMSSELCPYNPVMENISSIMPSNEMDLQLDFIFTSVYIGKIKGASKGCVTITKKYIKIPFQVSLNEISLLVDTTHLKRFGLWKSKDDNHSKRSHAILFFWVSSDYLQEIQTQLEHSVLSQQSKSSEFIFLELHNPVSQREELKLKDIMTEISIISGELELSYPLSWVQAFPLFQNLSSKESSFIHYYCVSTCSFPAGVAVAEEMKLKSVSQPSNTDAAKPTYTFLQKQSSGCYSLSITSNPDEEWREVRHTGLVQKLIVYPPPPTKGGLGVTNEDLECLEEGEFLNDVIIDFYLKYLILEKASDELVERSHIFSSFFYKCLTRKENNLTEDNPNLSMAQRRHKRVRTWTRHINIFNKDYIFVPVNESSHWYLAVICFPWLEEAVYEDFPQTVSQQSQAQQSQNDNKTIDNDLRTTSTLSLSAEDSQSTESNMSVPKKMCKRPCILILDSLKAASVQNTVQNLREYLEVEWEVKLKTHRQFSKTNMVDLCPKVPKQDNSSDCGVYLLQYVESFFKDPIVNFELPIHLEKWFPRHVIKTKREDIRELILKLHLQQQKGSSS

[3] = biological target: T3, Sentrin-specific protease 6 (Homo sapiens, UniProt Q9GZR1); assay type: functional;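 further: Luminescence-based dose-response confirmatory assay of SENP6 inhibition, following up an ultra-high-throughput screen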
T3 sequence (Q9GZR1 whole entry): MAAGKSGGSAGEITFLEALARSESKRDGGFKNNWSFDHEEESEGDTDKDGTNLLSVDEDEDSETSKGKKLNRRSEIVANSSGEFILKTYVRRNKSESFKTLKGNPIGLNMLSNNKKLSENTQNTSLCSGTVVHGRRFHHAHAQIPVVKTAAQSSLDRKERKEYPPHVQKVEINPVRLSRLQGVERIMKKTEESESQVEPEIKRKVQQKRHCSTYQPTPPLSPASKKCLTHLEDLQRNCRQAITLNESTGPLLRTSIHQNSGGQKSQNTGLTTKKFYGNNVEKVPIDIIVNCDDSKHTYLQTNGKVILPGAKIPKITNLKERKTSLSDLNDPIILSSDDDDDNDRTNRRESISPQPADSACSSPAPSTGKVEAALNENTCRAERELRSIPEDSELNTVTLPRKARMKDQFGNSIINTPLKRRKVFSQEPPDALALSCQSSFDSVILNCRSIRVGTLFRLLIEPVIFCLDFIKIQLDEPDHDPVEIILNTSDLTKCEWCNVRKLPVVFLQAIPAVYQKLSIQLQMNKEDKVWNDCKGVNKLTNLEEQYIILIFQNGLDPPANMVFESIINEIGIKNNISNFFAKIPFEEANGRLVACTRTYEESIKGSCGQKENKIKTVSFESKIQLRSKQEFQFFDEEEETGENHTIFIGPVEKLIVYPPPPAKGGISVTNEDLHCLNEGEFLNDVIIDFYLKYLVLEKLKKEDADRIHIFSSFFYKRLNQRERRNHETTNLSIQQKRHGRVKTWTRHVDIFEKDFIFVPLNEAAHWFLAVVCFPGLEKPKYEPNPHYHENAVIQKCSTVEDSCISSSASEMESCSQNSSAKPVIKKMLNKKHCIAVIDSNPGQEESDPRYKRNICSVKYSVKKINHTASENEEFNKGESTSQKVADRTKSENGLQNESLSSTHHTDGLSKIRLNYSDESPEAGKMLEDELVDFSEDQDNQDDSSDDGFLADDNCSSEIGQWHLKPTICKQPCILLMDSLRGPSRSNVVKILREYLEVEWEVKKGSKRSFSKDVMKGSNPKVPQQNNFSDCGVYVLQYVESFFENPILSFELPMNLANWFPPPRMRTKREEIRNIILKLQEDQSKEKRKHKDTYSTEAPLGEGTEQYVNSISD

[4] = biological target: T4, Sentrin-specific protease 8 (Homo sapiens, UniProt Q96LD8); assay type: functional;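 further: luminescence read-out of SENP8 inhibition, dose-response confirmation following an ultra-high-throughput screen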
T4 sequence (Q96LD8 whole entry): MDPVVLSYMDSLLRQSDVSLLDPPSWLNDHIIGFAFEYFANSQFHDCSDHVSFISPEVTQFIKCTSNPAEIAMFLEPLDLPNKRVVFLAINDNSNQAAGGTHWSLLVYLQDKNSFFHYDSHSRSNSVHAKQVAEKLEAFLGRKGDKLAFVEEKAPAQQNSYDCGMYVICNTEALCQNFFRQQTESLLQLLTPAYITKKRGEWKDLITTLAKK

[5] = inhibitors of firefly luciferase expression or activity, dose response, H4 neuroglioma cells, luminescence (AID 1990); assay type: functional, cell-based
[6] = luciferase reporter signal reduction – luminescence, H4-C neuroglioblastoma cells, dose response (AID 2458); assay type: functional, cell-based;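 further: H4 neuroglioblastoma cells stably carrying a luciferase reporter gene fusion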
[7] = test system: BJ; assay: cytotoxicity toward BJ-TERT fibroblasts, dose response, cell-based, RAS-independent, luminescence (AID 1933); assay type: functional; settings: Homo sapiens
[8] = cells; assay type: functional, cell-based
[9] = Luminescence Cell-Based Dose Response HTS to Identify Inhibitors of 5'UTR Stem-Loop Driven Prion Protein mRNA Translation in H4 Neuroglioblastoma Cells. [Related pubchem assays: 1827 (Project Summary), 1813 (Primary HTS)]; assay type: functional
[10] = inhibitors of SNCA 5'UTR-driven reporter translation, confirmation, H4 neuroglioma cells, luminescence (AID 1988); assay type: functional, cell-based
[11] = test system: BJ; assay: cells; assay type: functional, cell-based; settings: Homo sapiens
[12] = test system: BJ; assay: cytotoxicity toward BJ-TERT-LT-ST fibroblasts, dose response, cell-based, RAS-independent, luminescence (AID 1935); assay type: functional; settings: Homo sapiens;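 further: BJ fibroblasts immortalized with TERT plus LT and ST oncogenes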
[13] = cytotoxicity toward DRD oncogenic fibroblasts, dose response, cell-based, non-viral oncogenic, luminescence (AID 1934); assay type: functional; settings: Homo sapiens
[14] = inhibitors of SNCA 5'UTR-driven translation, confirmation, luminescence, H4 neuroglioblastoma cells, dose confirmation (AID 2454); assay type: functional, cell-based;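 further: H4 neuroglioblastoma cells carrying an alpha-synuclein 5'UTR luciferase reporter; potency for inhibition of the luciferase signal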
[15] = test system: BJ; assay: cytotoxicity toward Ras-transformed BJeLR fibroblasts, dose response, cell-based, alamar blue fluorescence, cherrypicked samples (AID 2631); assay type: functional; settings: Homo sapiens;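 further: confirmatory dose-response assay in RAS-dependent BJ fibroblasts engineered with TERT, LT and ST, with cytotoxicity read by fluorescence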
[16] = cells; assay type: functional, cell-based; remark: listed apart in the source
[17] = biological target: T5, Nuclear receptor subfamily 0 group B member 1 (Homo sapiens, UniProt P51843); assay type: functional, cell-based;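 further: HEK293T cells transfected with SF-1 and DAX-1 plus StAR promoter luciferase reporter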
T5 sequence (P51843 whole entry): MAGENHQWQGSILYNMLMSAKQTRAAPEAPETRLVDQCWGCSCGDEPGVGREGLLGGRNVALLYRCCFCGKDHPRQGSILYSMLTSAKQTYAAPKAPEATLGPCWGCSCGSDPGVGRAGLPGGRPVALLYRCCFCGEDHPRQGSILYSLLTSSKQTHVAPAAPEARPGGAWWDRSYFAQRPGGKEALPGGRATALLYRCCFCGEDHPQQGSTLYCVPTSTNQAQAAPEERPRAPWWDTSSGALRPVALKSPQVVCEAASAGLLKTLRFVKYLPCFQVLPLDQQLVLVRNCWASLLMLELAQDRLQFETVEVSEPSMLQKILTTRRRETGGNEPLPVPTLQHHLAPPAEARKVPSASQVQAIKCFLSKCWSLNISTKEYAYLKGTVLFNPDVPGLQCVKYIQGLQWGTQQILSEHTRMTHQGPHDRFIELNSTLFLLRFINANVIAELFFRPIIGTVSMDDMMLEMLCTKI

[18] = biological target: Paired box protein Pax-8 (Homo sapiens, UniProt Q06710); assay: inhibitors of PAX8-driven TPO luciferase reporter, dose response, RMG-I cells, cherry-pick (AID 687027); assay type: functional, cell-based;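 further: luciferase reporter driven by Pax8 target thyroperoxidase promoter measured by SteadyGlo luminescence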
Chain of Paired box protein Pax-8 (Q06710 whole entry, the tested form may be a part): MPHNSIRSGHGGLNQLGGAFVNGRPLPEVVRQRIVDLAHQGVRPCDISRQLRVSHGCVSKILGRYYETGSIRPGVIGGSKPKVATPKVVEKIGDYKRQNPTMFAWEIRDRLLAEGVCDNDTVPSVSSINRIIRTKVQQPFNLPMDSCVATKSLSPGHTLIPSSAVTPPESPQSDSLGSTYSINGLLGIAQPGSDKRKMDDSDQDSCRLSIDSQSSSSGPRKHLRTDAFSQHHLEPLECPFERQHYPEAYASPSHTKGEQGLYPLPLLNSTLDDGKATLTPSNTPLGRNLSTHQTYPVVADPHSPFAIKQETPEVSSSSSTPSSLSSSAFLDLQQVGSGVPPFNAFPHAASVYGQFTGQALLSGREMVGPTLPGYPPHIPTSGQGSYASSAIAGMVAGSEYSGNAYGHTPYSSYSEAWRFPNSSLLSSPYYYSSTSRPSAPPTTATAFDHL

[19] = Fluorescence-based cell-based high throughput dose response assay for inhibitors of the interaction of nucleotide-binding oligomerization domain containing 2 (NOD2) and the receptor-interacting serine-threonine kinase 2 (RIPK2).; assay type: functional; settings: Homo sapiens
[20] = A549 cell cytotoxicity, dose response, cytotoxicity control, plate reader, cherry-pick, antagonist series (AID 743412); assay type: functional, cell-based
[21] = HepG2 cell cytotoxicity, dose response, cytotoxicity control, plate reader, cherry-pick, antagonist series (AID 743416); assay type: functional, cell-based
[22] = LGR2 antagonists, dose response, cell-based, HEK293, CRE-luciferase reporter, cherry pick, set 2 (AID 743343); assay type: functional;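 further: transfected cells were stimulated with diluted bursicon conditioned medium after compound addition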
[23] = MC4R antagonists, dose response, counter-screen for LGR2 antagonist project, cell-based, plate reader, cherry pick (AID 743444); assay type: functional;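 further: transfected HEK 293 cells stimulated with alpha-MSH peptide; potency of inhibitors of the alpha-MSH evoked signal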
[24] = HEK293 cell cytotoxicity, dose response, cytotoxicity control, plate reader, cherry-picked samples (AID 743446); assay type: functional, cell-based
[25] = test system: Escherichia coli; assay: microbe, parasite or virus in culture
[26] = test system: Escherichia coli; assay: microbe, parasite or virus in culture; remark: listed apart in the source
[27] = biological target: Cytochrome P450 2C19 (Homo sapiens, UniProt P33261); assay: Cytochrome panel assay with activity outcomes. Panel member name: p450-cyp2c19 Compounds with AC50 equal or less than 10 uM are considered active; assay type: functional; settings: read-out: AC50
Chain of Cytochrome P450 2C19 (P33261 whole entry): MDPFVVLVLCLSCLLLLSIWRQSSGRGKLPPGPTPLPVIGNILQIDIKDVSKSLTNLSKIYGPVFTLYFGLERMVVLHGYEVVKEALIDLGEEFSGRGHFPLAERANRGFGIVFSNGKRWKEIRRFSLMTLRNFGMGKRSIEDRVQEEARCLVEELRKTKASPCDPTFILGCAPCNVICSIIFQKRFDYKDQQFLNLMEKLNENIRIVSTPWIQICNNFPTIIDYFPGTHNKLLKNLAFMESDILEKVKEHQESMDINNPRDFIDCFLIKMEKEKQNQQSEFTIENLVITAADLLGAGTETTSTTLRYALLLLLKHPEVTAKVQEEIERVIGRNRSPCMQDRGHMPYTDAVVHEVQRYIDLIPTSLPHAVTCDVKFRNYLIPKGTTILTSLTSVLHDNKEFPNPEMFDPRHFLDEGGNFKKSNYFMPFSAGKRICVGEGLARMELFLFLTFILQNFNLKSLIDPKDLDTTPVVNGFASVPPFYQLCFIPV

[28] = biological target: T6, Cytochrome P450 1A2 (Homo sapiens, UniProt P05177);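 further: PubChem cytochrome P450 panel assay, CYP1A2 panel member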
T6 sequence (P05177 whole entry): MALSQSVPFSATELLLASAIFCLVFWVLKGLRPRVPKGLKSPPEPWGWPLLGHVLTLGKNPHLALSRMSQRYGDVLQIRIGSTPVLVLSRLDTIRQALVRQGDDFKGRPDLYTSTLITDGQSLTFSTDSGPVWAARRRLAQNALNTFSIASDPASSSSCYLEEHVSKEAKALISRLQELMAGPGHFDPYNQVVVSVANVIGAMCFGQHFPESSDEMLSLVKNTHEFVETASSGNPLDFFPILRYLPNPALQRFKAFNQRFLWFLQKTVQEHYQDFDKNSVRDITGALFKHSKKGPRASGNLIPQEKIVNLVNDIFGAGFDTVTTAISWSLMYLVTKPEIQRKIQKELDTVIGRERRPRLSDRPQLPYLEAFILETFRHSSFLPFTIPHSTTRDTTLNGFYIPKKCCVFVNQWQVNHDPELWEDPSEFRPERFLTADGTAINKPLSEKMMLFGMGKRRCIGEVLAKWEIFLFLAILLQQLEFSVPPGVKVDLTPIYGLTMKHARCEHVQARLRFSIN

[29] = biological target: Cytochrome P450 3A4 (Homo sapiens, UniProt P08684);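 further: CYP3A4 tested as one member of a cytochrome P450 panel screen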
Chain of Cytochrome P450 3A4 (P08684 whole entry): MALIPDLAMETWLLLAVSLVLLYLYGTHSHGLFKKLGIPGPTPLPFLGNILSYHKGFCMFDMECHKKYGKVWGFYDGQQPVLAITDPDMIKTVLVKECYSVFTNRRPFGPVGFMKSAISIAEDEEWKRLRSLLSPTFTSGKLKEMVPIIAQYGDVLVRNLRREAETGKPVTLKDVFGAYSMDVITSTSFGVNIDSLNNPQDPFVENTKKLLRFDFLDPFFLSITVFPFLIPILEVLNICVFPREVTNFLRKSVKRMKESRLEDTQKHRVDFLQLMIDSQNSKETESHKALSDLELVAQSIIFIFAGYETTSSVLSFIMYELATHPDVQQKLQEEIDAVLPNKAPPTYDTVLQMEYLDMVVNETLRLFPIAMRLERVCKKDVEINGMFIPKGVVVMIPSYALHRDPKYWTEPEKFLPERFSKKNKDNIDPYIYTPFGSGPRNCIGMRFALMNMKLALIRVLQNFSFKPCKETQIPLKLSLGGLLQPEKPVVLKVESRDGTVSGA

[30] = test system: Streptococcus sp. 'group A'; assay: growth inhibition of control SK(-) GAS strain, dose response, counter-screen for streptokinase expression inhibitor project, luminescence, kanamycin, BacTiterGlo, confirmation (AID 1900); assay type: functional, organism-based
[31] = test system: Streptococcus; assay: Group A Streptococcus viability loss, dose response, counter-screen for streptokinase expression inhibitor project, luminescence, BacTiterGlo (AID 1915); assay type: functional, organism-based;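 further: potency for reduction of bacterial viability or growth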

With `COc1ccc2nc(NC(=O)c3cccc(OCc4c(C)noc4C)c3)sc2c1` the IC50 [1] was > 100 µM (inactive), the IC50 [2] was 3.67 µM (active) and the IC50 [3] was 4.78 µM (active). For the same compound, the IC50 [4] was > 100 µM (inactive).
With `O=C(c1cc([N+](=O)[O-])ccc1N1CCOCC1)N1CCN(c2ccccc2)CC1` the EC50 [5] was 0.681 µM (active), the EC50 [6] was 0.501 µM (active) and the EC50 [7] was 0.309 µM (active). The EC50 [8] was 0.959 µM (active), the EC50 [9] was < 0.1 µM (active) and the EC50 [10] was < 0.1 µM (active). The EC50 [11] was 1.2 µM (inconclusive), the EC50 [12] was 0.338 µM (inconclusive) and the EC50 [13] was 0.633 µM (inconclusive). For the same compound, the EC50 [14] was 0.738 µM (active), the EC50 [15] was < 0.104 µM (active) and the IC50 [16] was > 67.5 µM (inactive). For the same compound, the IC50 [17] was > 67.5 µM (inactive) and the AC50 [18] was 3.76 µM (active).
For `N#CC1c2ccccc2-n2nncc2CN1Cc1cc(Cl)cc(Cl)c1` (stereo not drawn), the IC50 [19] was 5.8 µM (active), the AC50 [18] was 10.2 µM (active) and the AC50 [20] was 15.2 µM (active). For the same compound, the AC50 [21] was 7.48 µM (active), the AC50 [22] was 3.37 µM (active) and the AC50 [23] was 2.45 µM (active). The AC50 [24] was 6.5 µM (active), the AC50 [25] was 22.5 µM (active) and the AC50 [26] was 2.36 µM (active).
For `c1ccc(CN2CCC3(CCCc4ccccc43)CC2)cc1`, the AC50 [27] was 10 µM (inconclusive), the AC50 [28] was 31.6 µM (inconclusive) and the AC50 [29] was “inconclusive”.
For `Cc1cccc(/C=N\N=C\c2cccc(C)c2)c1`, the IC50 [1] was 24.6 µM (active), the IC50 [2] was 7.09 µM (active) and the IC50 [3] was 27.6 µM (active). The IC50 [4] was 47 µM (active).
For `CN(C)[C@@H]1C(O)=C(C(N)=O)C(=O)[C@@]2(O)C(O)=C3C(=O)c4c(O)ccc(Cl)c4[C@@](C)(O)[C@H]3C[C@@H]12` [CHLORTETRACYCLINE HYDROCHLORIDE], the EC50 [30] was < 0.06 µM (active), the EC50 [31] was 0.148 µM (active) and the AC50 [25] was 19.8 µM (active). The AC50 [26] was 0.93 µM (active).

Source: ChEMBL document CHEMBL1201862, “PubChem BioAssay data set” (2004)
